Experimental data reported in patent US6706664B1, “Benzoxazole compounds, process for the preparation thereof and herbicides” (UBE Industries, Ltd., priority 1999, dated 2004).

How the values were obtained:
Parameters in all cases: key: 0: normal development; 1: Less damaged; 2: Slightly damaged; 3: Moderately damaged; 4: Severely damaged; 5: All killed
[1] = test system: velvetleaf; assay: Foliar spread test for upland field; assay type: in vivo, Abutilon theophrasti; settings: foliar spray 500 ppm, 3 weeks, rank vs non-treated
Summary of the method: (§1)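 Crops and weeds grown about 2 weeks in volcanic ash soil in a glasshouse, then sprayed with wettable-powder formulations diluted to 500 ppm in water with 0.5% surfactant. After 3 weeks at 25 °C, injury scored visually 0 (normal) to 5 (all killed).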

[2] = test system: annual bluegrass; assay: Foliar spread test for upland field; assay type: in vivo, Poa annua; settings: foliar spray 500 ppm, 3 weeks, rank vs non-treated
Summary of the method: as §1

[3] = test system: monochoria; assay: Herbicidal test for paddy field; assay type: in vivo, Monochoria vaginalis; settings: paddy field pot, 500 g/ha dropwise at 1.5 leaf stage of barnyardgrass, 3 weeks, rank vs non-treated
Summary of the method: (§2)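 Flooded pots (3 cm water) of alluvial soil were sown with seeds or tubers, and wettable-powder formulations in 0.05% surfactant water were dripped in at 500 g/ha at the 1.5-leaf stage of barnyardgrass. Plants were kept 3 weeks in a glasshouse at an average 25° C. Damage was scored 0 (normal) to 5 (all killed) against untreated controls.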

[4] = test system: livid amaranth; assay: Foliar spread test for upland field; assay type: in vivo, Amaranthus lividus; settings: foliar spray 500 ppm, 3 weeks, rank vs non-treated
Summary of the method: as §1

[5] = test system: young rice plant; assay: Herbicidal test for paddy field; assay type: in vivo; settings: paddy field pot, 500 g/ha dropwise at 1.5 leaf stage of barnyardgrass, 3 weeks, rank vs non-treated
Summary of the method: as §2

[6] = test system: green foxtail; assay: Soil treatment test for upland field; assay type: in vivo, Setaria viridis; settings: 500 g/ha, glass house 25° C., 3 weeks
Summary of the method: (§3)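 Pre-emergence test: seeds sown in Ube alluvial soil in Wagner pots, soil surface sprayed with wettable powder in water with 0.05% surfactant at 500 g/ha. Plants kept in a glasshouse at average 25 °C for 3 weeks, then damage scored 0 (normal) to 5 (all killed).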

[7] = test system: annual bluegrass; assay: Soil treatment test for upland field; assay type: in vivo, Poa annua; settings: 500 g/ha, glass house 25° C., 3 weeks
Summary of the method: as §3

[8] = test system: blackgrass; assay: Soil treatment test for upland field; assay type: in vivo, Alopecurus aegualis; settings: 500 g/ha, glass house 25° C., 3 weeks
Summary of the method: as §3

[9] = test system: blackgrass; assay: Foliar spread test for upland field; assay type: in vivo, Alopecurus aegualis; settings: foliar spray 500 ppm, 3 weeks, rank vs non-treated
Summary of the method: as §1

[10] = test system: common lambsquartes; assay: Foliar spread test for upland field; assay type: in vivo, Chenopodium album; settings: foliar spray 500 ppm, 3 weeks, rank vs non-treated
Summary of the method: as §1

[11] = test system: green foxtail; assay: Foliar spread test for upland field; assay type: in vivo, Setaria viridis; settings: foliar spray 500 ppm, 3 weeks, rank vs non-treated
Summary of the method: as §1

[12] = test system: Large crabgrass; assay: Soil treatment test for upland field; assay type: in vivo, Digitaria adscendens; settings: 500 g/ha, glass house 25° C., 3 weeks
Summary of the method: as §3

[13] = test system: morning glory; assay: Foliar spread test for upland field; assay type: in vivo, Ipomoea spps.; settings: foliar spray 500 ppm, 3 weeks, rank vs non-treated
Summary of the method: as §1

[14] = test system: corn; assay: Foliar spread test for upland field; assay type: in vivo; settings: foliar spray 500 ppm, 3 weeks, rank vs non-treated
Summary of the method: (§4)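 Two-week-old glasshouse seedlings on volcanic ash soil were treated by foliar spray at 500 ppm, with 0.5% surfactant in the diluent. Effects were graded visually after three weeks, from 0 for no injury to 5 for complete kill.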

[15] = test system: wheat; assay: Foliar spread test for upland field; assay type: in vivo; settings: foliar spray 500 ppm, 3 weeks, rank vs non-treated
Summary of the method: as §4

[16] = test system: solgum; assay: Foliar spread test for upland field; assay type: in vivo; settings: foliar spray 500 ppm, 3 weeks, rank vs non-treated
Summary of the method: as §4

[17] = test system: sugar beat; assay: Foliar spread test for upland field; assay type: in vivo; settings: foliar spray 500 ppm, 3 weeks, rank vs non-treated
Summary of the method: as §4

[18] = test system: livid amaranth; assay: Soil treatment test for upland field; assay type: in vivo, Amaranthus lividus; settings: 500 g/ha, glass house 25° C., 3 weeks
Summary of the method: as §3

[19] = test system: Large crabgrass; assay: Foliar spread test for upland field; assay type: in vivo, Digitaria adscendens; settings: foliar spray 500 ppm, 3 weeks, rank vs non-treated
Summary of the method: as §1

Compound | Effects Velvetleaf [1] | Effects Annual bluegrass [2] | Effect Monochoria [3] | Effects Livid amaranth [4] | Effect Young rice plant [5] | Effects Green foxtail [6] | Effects Annual bluegrass [7] | Effects Blackgrass [8] | Effects Blackgrass [9] | Effects Common lambsquarters [10] | Effects Green foxtail [11] | Effects Large crabgrass [12] | Effects Morning glory [13] | Effects Corn [14] | Effects Wheat [15] | Effects Solgum [16] | Effects Sugar beat [17] | Effects Livid amaranth [18] | Effects Large crabgrass [19]
CCC(Oc1cccc(OC(F)(F)F)c1)c1nc2cc([N+](=O)[O-])ccc2o1 (centres unmarked) [Compound 450] | 3 | 4 | 5 | 4 | 1 | 5 | 5 | 5 | 3 | 4 | 3 | 5 | 2 | 3 | 2 | 3 | 5 | 5 | 4
CCCC(Oc1ccc(F)c(C(F)(F)F)c1)c1nc2cc(C#N)c(Cl)cc2o1 (centres unmarked) [Compound 533] | 2 | 4 | 4 | 5 | 2 | 5 | 4 | 4 | 3 | 4 | 4 | 5 | 5 | 2 | 2 | 2 | 5 | 5 | 3
